Results taken from patent publication US8912144B2, “Method for treating stroke via administration of NEP1-40 and inosine” (Children's Medical Center Corporation, priority 2003, dated 2014).

Tested on: corticospinal neurons (CSNs/CSMNs)
Experiment: Laser-capture microdissection and Illumina microarray gene expression in corticospinal neurons contralateral to stroke
Type: in vivo, rat
Description: In a separate group of animals (n=20), layer V pyramidal cells of the sensorimotor cortex were retrogradely labeled by injecting Alexa-Fluor-488-conjugated cholera toxin B subunit (CTB; 300 U/μl in sterile saline) into the cervical spinal cord. For this, animals were anesthetized with a combination of ketamine and Domitor (medetomidine) and a laminectomy was performed at the cervical level of the spinal cord (C2-C4). CTB was stereotaxically delivered into four sites lateral to the corticospinal tract. Injections (1.3 μl) were spaced 1 mm apart on the rostro-caudal axis, and were made 0.5 mm to the left and right of the midline. After allowing two weeks for transport of the tracer, we performed either sham surgery with no treatment (n=6) or stroke surgery combined with saline (n=3) or inosine (n=4) treatment as described above. Seven days later, animals were decapitated under transient gas anesthesia, brains were removed and rinsed in cold RPMI medium, and a tissue block containing the sensorimotor cortex was dissected and placed in OCT Tissue Tek Medium (Sakura Finetek USA Inc., CA) on dry ice within five minutes of death. Ten μm sections were cut onto precleaned Gold Seal RITE-ON glass slides (Gold Seal Prod-ucts, Portsmouth, N.H.), placed on dry ice, and rapidly stored at −80° C.
Slide-mounted sections were thawed and dehydrated in RNAse-free ethanol gradients and xylene. Retro-gradely labeled, fluorescent cortical pyramidal cells in the undamaged hemisphere were individually captured using the Arcturus VERITAS system. ≧500 cells were collected from each animal and stored in Arcturus extraction buffer at −80° C. Total RNA was extracted from cells using the Micro-to-Midi TotalRNA Purification System (Invitrogen, Carlsbad Calif.) and double-amplified using the TargetAmp 2-Round Aminoallyl-aRNA Amplification kit 1.0 (Epicentre, Madison, Wis.). Amplified RNA was checked for average fragment length using the Agilent RNA 6000 Nano LabChip kit (Agilent Technologies, Santa Clara, Calif.) and then biotinylated and hybridized (1 μg) on Illumina RatRef-12 Expression BeadChip arrays (Illumina, San Diego Calif.), querying the expression of >22,000 RefSeq-curated rat transcripts. Results were obtained from a total of 15 samples representing 6 untreated controls, 4 animals with stroke treated with saline and 5 animals with stroke treated with inosine. Slides were processed and scanned with Illumina BeadStation platform according to the manufacturer protocol.
Raw data was analyzed using Bioconductor packages (www.bioconductor.org, (Gentleman et al., 2004)). Low level quality-control analysis was performed using inter-array Pearson correlation and clustering based on variance. Two arrays (1 saline and 1 inosine-treated) were outliers and were excluded from the analysis. Data was normalized using quantile normalization, and analysis of differential expression was performed using a linear model fitting (LIMMA package, (Smyth, 2005). Differentially expressed genes were classified according to gene ontology using Bioconductor packages and online tools (DAVID, http://david.abcc.ncifcrf.gov/). Pathway analysis was carried out using Ingenuity Pathway Analysis (Ingenuity Systems, www.ingenuity.com).

OC[C@H]1O[C@@H](n2cnc3c(O)ncnc32)[C@H](O)[C@@H]1O [inosine]
Fold-Induction Stroke, ino vs. cntrl (A2m ILMN_70335): 4.03
Signal Intensity Inosine (A2m ILMN_70335): 1924
Fold-Induction Stroke, ino vs. cntrl (ADRP ILMN_47969): 4.12
Signal Intensity Inosine (ADRP ILMN_47969): 3202
Fold-Induction Stroke, ino vs. cntrl (Adn ILMN_58846): 4.53
Signal Intensity Inosine (Adn ILMN_58846): 2287
Fold-Induction Stroke, ino vs. cntrl (Aif1 ILMN_47707): 2.67
Signal Intensity Inosine (Aif1 ILMN_47707): 4301
Fold-Induction Stroke, ino vs. cntrl (Arhgdib ILMN_66176): 4.08
Signal Intensity Inosine (Arhgdib ILMN_66176): 3057
Fold-Induction Stroke, ino vs. cntrl (Arpc1b ILMN_69642): 2.61
Signal Intensity Inosine (Arpc1b ILMN_69642): 758
Fold-Induction Stroke, ino vs. cntrl (Asb2 ILMN_50991): 3.27
Signal Intensity Inosine (Asb2 ILMN_50991): 615
Fold-Induction Stroke, ino vs. cntrl (Aurkc ILMN_69140): 1.43
Signal Intensity Inosine (Aurkc ILMN_69140): 1172
Fold-Induction Stroke, ino vs. cntrl (Bcl2a1 ILMN_62703): 3.34
Signal Intensity Inosine (Bcl2a1 ILMN_62703): 613
Fold-Induction Stroke, ino vs. cntrl (Btf3 ILMN_62809): 0.43
Signal Intensity Inosine (Btf3 ILMN_62809): 787
Fold-Induction Stroke, ino vs. cntrl (C1qb ILMN_61448): 2.76
Signal Intensity Inosine (C1qb ILMN_61448): 1832
Fold-Induction Stroke, ino vs. cntrl (C1qg ILMN_55502): 3.66
Signal Intensity Inosine (C1qg ILMN_55502): 2499
Fold-Induction Stroke, ino vs. cntrl (C2 ILMN_63608): 3.12
Signal Intensity Inosine (C2 ILMN_63608): 4113
Fold-Induction Stroke, ino vs. cntrl (C4-2 ILMN_59751): 2.95
Signal Intensity Inosine (C4-2 ILMN_59751): 2409
Fold-Induction Stroke, ino vs. cntrl (Card9 ILMN_62382): 2.83
Signal Intensity Inosine (Card9 ILMN_62382): 865
Fold-Induction Stroke, ino vs. cntrl (Cd68 ILMN_60003): 3.88
Signal Intensity Inosine (Cd68 ILMN_60003): 2117
Fold-Induction Stroke, ino vs. cntrl (Cd151 ILMN_62725): 1.50
Signal Intensity Inosine (Cd151 ILMN_62725): 1171
Fold-Induction Stroke, ino vs. cntrl (Cdk5rap2 ILMN_57761): 1.68
Signal Intensity Inosine (Cdk5rap2 ILMN_57761): 1377
Fold-Induction Stroke, ino vs. cntrl (Chd4 ILMN_55276): 1.26
Signal Intensity Inosine (Chd4 ILMN_55276): 7413
Fold-Induction Stroke, ino vs. cntrl (Cml1 ILMN_50957): 1.08
Signal Intensity Inosine (Cml1 ILMN_50957): 275
Fold-Induction Stroke, ino vs. cntrl (Comt ILMN_48330): 1.09
Signal Intensity Inosine (Comt ILMN_48330): 400
Fold-Induction Stroke, ino vs. cntrl (Crabp2 ILMN_48069): 2.62
Signal Intensity Inosine (Crabp2 ILMN_48069): 1006
Fold-Induction Stroke, ino vs. cntrl (Cyba ILMN_65212): 4.04
Signal Intensity Inosine (Cyba ILMN_65212): 2617
Fold-Induction Stroke, ino vs. cntrl (Dhrsx ILMN_56966): 1.38
Signal Intensity Inosine (Dhrsx ILMN_56966): 8022
Fold-Induction Stroke, ino vs. cntrl (Dtx2 ILMN_65350): 2.24
Signal Intensity Inosine (Dtx2 ILMN_65350): 1792
Fold-Induction Stroke, ino vs. cntrl (Esd ILMN_57701): 0.44
Signal Intensity Inosine (Esd ILMN_57701): 1416
Fold-Induction Stroke, ino vs. cntrl (Ftl1 ILMN_62100): 2.24
Signal Intensity Inosine (Ftl1 ILMN_62100): 11718
Fold-Induction Stroke, ino vs. cntrl (Fxr2h ILMN_59638): 1.64
Signal Intensity Inosine (Fxr2h ILMN_59638): 638
Fold-Induction Stroke, ino vs. cntrl (Gfap ILMN_68224): 2.88
Signal Intensity Inosine (Gfap ILMN_68224): 23099
Fold-induction CSMNs: Aif1 (ILMN_47707, over and above inosine's effect of decreasing stroke-induced changes): 2.33 fold
Fold-Induction Stroke, ino vs. cntrl, Uxs1 (ILMN_47889): 0.66
Signal Intensity, Uxs1 (ILMN_47889, inosine after stroke): 2868
Fold-Induction Stroke, ino vs. cntrl, LOC366193 (ILMN_48004): 0.67
Signal Intensity, LOC366193 (ILMN_48004, inosine after stroke): 2396
Fold-induction CSMNs: Crabp2 (ILMN_48069, over and above inosine's effect of decreasing stroke-induced changes): 2.12 fold
Fold-induction CSMNs: Ifitm3 (ILMN_48088, over and above inosine's effect of decreasing stroke-induced changes): 2.74 fold
Fold-Induction Stroke, ino vs. cntrl, Ap3s1 (ILMN_48320): 0.55
Signal Intensity, Ap3s1 (ILMN_48320, inosine after stroke): 285
Fold-Induction Stroke, ino vs. cntrl, LOC499423 (ILMN_48323): 0.53
Signal Intensity, LOC499423 (ILMN_48323, inosine after stroke): 1043
Fold-Induction Stroke, ino vs. cntrl, Wee1 (ILMN_48447): 0.83
Signal Intensity, Wee1 (ILMN_48447, inosine after stroke): 367
Fold-Induction Stroke, ino vs. cntrl, Sfrs10 (ILMN_48507): 0.72
Signal Intensity, Sfrs10 (ILMN_48507, inosine after stroke): 2745
Fold-Induction Stroke, ino vs. cntrl, Scarb2 (ILMN_48587): 0.71
Signal Intensity, Scarb2 (ILMN_48587, inosine after stroke): 569
Fold-Induction Stroke, ino vs. cntrl, Sec6l1 (ILMN_48688): 0.84
Signal Intensity, Sec6l1 (ILMN_48688, inosine after stroke): 587
Fold-Induction Stroke, ino vs. cntrl, Ube4a (ILMN_49300): 0.58
Signal Intensity, Ube4a (ILMN_49300, inosine after stroke): 1509
Fold-Induction Stroke, ino vs. cntrl, LOC501195 (ILMN_49366): 0.77
Signal Intensity, LOC501195 (ILMN_49366, inosine after stroke): 1460
Fold-Induction Stroke, ino vs. cntrl, Kcnc2 (ILMN_49569): 0.73
Signal Intensity, Kcnc2 (ILMN_49569, inosine after stroke): 4642
Fold-Induction Stroke, ino vs. cntrl, Arfrp1 (ILMN_49739): 0.93
Signal Intensity, Arfrp1 (ILMN_49739, inosine after stroke): 1014
Fold-Induction Stroke, ino vs. cntrl, Dmp1 (ILMN_49819): 0.38
Signal Intensity, Dmp1 (ILMN_49819, inosine after stroke): 267
Fold-Induction Stroke, ino vs. cntrl, Ralbp1 (ILMN_49884): 0.75
Signal Intensity, Ralbp1 (ILMN_49884, inosine after stroke): 1553
Fold-Induction Stroke, ino vs. cntrl, Snx2 (ILMN_50221): 0.66
Signal Intensity, Snx2 (ILMN_50221, inosine after stroke): 1681
Fold-Induction Stroke, ino vs. cntrl, Rpn2 (ILMN_50467): 0.71
Signal Intensity, Rpn2 (ILMN_50467, inosine after stroke): 835
Fold-Induction Stroke, ino vs. cntrl, RAMP4 (ILMN_50573): 0.75
Signal Intensity, RAMP4 (ILMN_50573, inosine after stroke): 544
Fold-Induction Stroke, ino vs. cntrl, Cdc37l (ILMN_50686): 0.83
Signal Intensity, Cdc37l (ILMN_50686, inosine after stroke): 625
Fold-Induction Stroke, ino vs. cntrl, LOC498489 (ILMN_50922): 0.49
Signal Intensity, LOC498489 (ILMN_50922, inosine after stroke): 603
Fold-Induction Stroke, ino vs. cntrl, Ube2m (ILMN_50967): 0.59
Signal Intensity, Ube2m (ILMN_50967, inosine after stroke): 332
Fold-Induction Stroke, ino vs. cntrl, LOC499428 (ILMN_51108): 0.50
Signal Intensity, LOC499428 (ILMN_51108, inosine after stroke): 678
Fold-Induction, complement cascade gene C3 (ILMN_51249, LCM-captured CSMNs contralateral a stroke): 2.17 fold
Fold-induction CSMNs: LOC305633, (P) Antxr2 protein (ILMN_51277, over and above inosine's effect of decreasing stroke-induced changes): 3.13 fold
Fold-Induction Stroke, ino vs. cntrl, Ik (ILMN_51588): 0.83
Signal Intensity, Ik (ILMN_51588, inosine after stroke): 417
Fold-Induction Stroke, ino vs. cntrl, LOC499767 (ILMN_51716): 0.64
Signal Intensity, LOC499767 (ILMN_51716, inosine after stroke): 1723
Fold-Induction Stroke, ino vs. cntrl, LOC497777 (ILMN_51717): 0.58
Signal Intensity, LOC497777 (ILMN_51717, inosine after stroke): 577
Fold-Induction Stroke, ino vs. cntrl, Tspan3 (ILMN_51868): 0.47
Signal Intensity, Tspan3 (ILMN_51868, inosine after stroke): 3842
Fold-Induction Stroke, ino vs. cntrl, LOC360807 (ILMN_51947): 0.50
Signal Intensity, LOC360807 (ILMN_51947, inosine after stroke): 689
Fold-Induction Stroke, ino vs. cntrl, LOC498931 (ILMN_51968): 0.54
Signal Intensity, LOC498931 (ILMN_51968, inosine after stroke): 554
Fold-Induction Stroke, ino vs. cntrl, LOC501619 (ILMN_51972): 0.59
Signal Intensity, LOC501619 (ILMN_51972, inosine after stroke): 416
Fold-Induction Stroke, ino vs. cntrl, Scd2 (ILMN_52257): 0.42
Signal Intensity, Scd2 (ILMN_52257, inosine after stroke): 3009
Fold-Induction Stroke, ino vs. cntrl, LOC317508 (ILMN_52577): 0.58
Signal Intensity, LOC317508 (ILMN_52577, inosine after stroke): 493
Fold-Induction Stroke, ino vs. cntrl, Nedd9 (ILMN_52827): 0.73
Signal Intensity, Nedd9 (ILMN_52827, inosine after stroke): 550
Fold-Induction Stroke, ino vs. cntrl, Atp6v1h (ILMN_52968): 0.62
Signal Intensity, Atp6v1h (ILMN_52968, inosine after stroke): 525
Fold-Induction Stroke, ino vs. cntrl, MGC94339 (ILMN_52985): 0.70
Signal Intensity, MGC94339 (ILMN_52985, inosine after stroke): 547
Fold-Induction Stroke, ino vs. cntrl, Ube2e3 (ILMN_53046): 0.61
Signal Intensity, Ube2e3 (ILMN_53046, inosine after stroke): 434
Fold-Induction Stroke, ino vs. cntrl, Arpc3 (ILMN_53076): 0.68
Signal Intensity, Arpc3 (ILMN_53076, inosine after stroke): 423
Fold-induction CSMNs: Irf1 (ILMN_53085, over and above inosine's effect of decreasing stroke-induced changes): 1.83 fold
Fold-Induction Stroke, ino vs. cntrl, LOC309362 (ILMN_53195): 1.02
Signal Intensity, LOC309362 (ILMN_53195, inosine after stroke): 498
Fold-Induction Stroke, ino vs. cntrl, Hat1 (ILMN_53256): 0.69
Signal Intensity, Hat1 (ILMN_53256, inosine after stroke): 362
Fold-Induction Stroke, ino vs. cntrl, LOC499978 (ILMN_53292): 0.72
Signal Intensity, LOC499978 (ILMN_53292, inosine after stroke): 970
Fold-induction CSMNs: LOC498335, (P) Small inducible cytokine B13 precursor (CXCL13) (ILMN_53325, over and above inosine's effect of decreasing stroke-induced changes): 11.42 fold
Fold-induction CSMNs: Mt1a (Metallothionein) (ILMN_53575, over and above inosine's effect of decreasing stroke-induced changes): 2.69 fold
Fold-Induction Stroke, ino vs. cntrl, Cnbp1 (ILMN_53694): 0.76
Signal Intensity, Cnbp1 (ILMN_53694, inosine after stroke): 4491
Fold-Induction Stroke, ino vs. cntrl, MGC94053 (ILMN_53763): 0.59
